Assay results published in PubChem BioAssay AID691 (PCMD, 2007).
Converted amounts (≈) assume the structure as drawn. Results filed as inconclusive are left out. The source made the active and inactive calls. No rule for the calls is given here.

The compounds below were run on Zebrafish larvae lipid metabolism, fluorescent lipid gallbladder/intestine (assay: larval zebrafish lipid processing modulation – whole organism, confirmation, fluorescent lipid, gallbladder/intestine, dose response (AID 691)).

| SMILES | MIC |
| --- | --- |
| Cn1c(C(=O)OC(C(=O)NC2CCCC2)c2cccnc2)cc2sccc21 (stereo not given) | > 100 µM (inactive) |
| Cc1nnc(NC(=O)C2CCCO2)s1 (stereo not given) | > 100 µM (inactive) |
| COc1ccc(C2CC(C(F)(F)F)n3ncc(C(=O)Nc4cccc(O)c4)c3N2)cc1OC (stereo not given) | > 100 µM (inactive) |
| c1coc(-c2nnc3sc(-c4cccs4)nn23)c1 | 9.37 µM (≈ 2.57 µg/mL) |
| COC(=O)c1cc(Br)c(=O)n(CCc2ccc(F)cc2)c1 | > 100 µM (inactive) |
| CC1Oc2ccccc2N(CC(=O)NCc2cccs2)C1=O (stereo not given) | > 100 µM (inactive) |
| CCOC(=O)CCc1c(C)c(C#N)c2[nH]c3ccccc3n2c1=O | > 100 µM (inactive) |
| CCNC(=O)c1cc2c(=O)n3cccc(C)c3nc2n(CCc2ccccc2)c1=N | > 100 µM (inactive) |
| Cc1ccc(CNC(=O)c2cc3c(=O)n4ccccc4nc3n(Cc3ccco3)c2=N)cc1 | 62.5 µM (≈ 27.5 µg/mL) |
| CCOC(=O)CSc1nnc2n(Cc3ccccc3)c(=O)c3c4c(sc3n12)CCC4 | > 100 µM (inactive) |
| OCCN1CCN(CCCN2c3ccccc3Sc3ccc(C(F)(F)F)cc32)CC1 | > 100 µM (inactive) |
| CN(C)[C@@H]1C(=O)C(C(N)=O)=C(O)[C@@]2(O)C(=O)C3=C(O)c4c(O)ccc(Cl)c4[C@@H](O)[C@H]3C[C@@H]12 | > 100 µM (inactive) |
| c1ccc(-c2nnc3sc(Cc4cccs4)nn23)cc1 | 18.8 µM (≈ 5.59 µg/mL) |
| c1ccc(CN2CCN(c3ncnc4c3[nH]c3ccccc34)CC2)cc1 | 31.3 µM (≈ 10.7 µg/mL) |
| CC1(c2cnc(Nc3ccccc3)s2)CCC(=O)O1 (stereo not given) | > 100 µM (inactive) |
| COc1ccccc1-c1nnc2sc(C3CCCCC3)nn12 | > 100 µM (inactive) |
| CCOC(=O)CSc1nc(N)c(C(=O)Nc2ccc(N(C)C)cc2)s1 | 25 µM (≈ 9.51 µg/mL) |
| N#CC1=C(SCC(=O)c2ccc(Cl)cc2)NC2=C(C(=O)CCC2)C1c1ccco1 (stereo not given) | > 100 µM (inactive) |
| Cc1ccc2[nH]c3c(c2c1)CN(C(=O)CN1CCCc2ccccc21)CC3 | > 100 µM (inactive) |
| N#CCSc1nc2c(c(=O)n1Cc1ccco1)C1(CCCC1)Cc1ccccc1-2 | 25 µM (≈ 10.1 µg/mL) |
| COc1ccc2c(c1)c(C(=O)CN1CCOCC1)c(C)n2C | > 100 µM (inactive) |
| Cc1csc(NC(=O)Nc2cccc(Cl)c2)n1 | > 100 µM (inactive) |
| CCCC1CC(=O)OC1(C)C(=O)CSc1n[nH]c(-c2ccccc2)n1 (stereo not given) | > 100 µM (inactive) |
| CCN(CC)c1ccc(C2Nc3cccc4cccc(c34)N2)c(O)c1 | > 100 µM (inactive) |
| COC(=O)C1=C(N)Oc2cc(C)oc(=O)c2C1c1ccncc1 (stereo not given) | > 100 µM (inactive) |

| SMILES | MIC |
| --- | --- |
| N#Cc1c(NCCN)nc(NCc2ccccc2)c2c1CCN(Cc1ccccc1)C2 | > 100 µM (inactive) |
| COC(=O)c1sccc1NC(=O)c1ccco1 | > 100 µM (inactive) |
| CNc1ccccc1-c1nc2ccccc2n(C)c1=O | 15.6 µM (≈ 4.15 µg/mL) |
| Cc1c(N=Cc2c(O)n(CCc3ccc(F)cc3)c(=O)[nH]c2=O)c(=O)n(-c2ccccc2)n1C | > 100 µM (inactive) |
| COc1ccc(C)cc1-n1nnnc1SC/C(O)=C(\C#N)c1nc2ccccc2[nH]1 | > 100 µM (inactive) |
| CCCCOc1ccccc1C(=O)NCCCC(=O)O | > 100 µM (inactive) |
| Clc1ccc(OCc2nnc(SCCN3CCCCC3)n2Cc2ccco2)cc1 | 75 µM (≈ 32.5 µg/mL) |
| CS(=O)(=O)Nc1ccc([N+](=O)[O-])cc1Oc1ccccc1 | > 100 µM (inactive) |
| Cc1cccc2c1NC(C)CC2C (stereo not given) | > 100 µM (inactive) |
| CNc1oc(-c2ccccc2Cl)nc1C#N | > 100 µM (inactive) |
| CC(=O)Nc1nnc(S(N)(=O)=O)s1 | > 100 µM (inactive) |
| CCN1CC2=C(OC(N)=C(C#N)C2c2ccccc2)/C(=C\c2ccccc2)C1 (stereo not given) | > 100 µM (inactive) |
| CC(C)N=c1cc2n(-c3ccc(Cl)cc3)c3ccccc3nc-2cc1Nc1ccc(Cl)cc1 | 6.25 µM (≈ 2.96 µg/mL) |
| COC(=O)c1ccc(Cn2nnc3c(sc4nc(N5CCOCC5)c5c(c43)CCCC5)c2=O)o1 | > 100 µM (inactive) |
| C=CCn1c(N)c(C(=O)Nc2ccccc2)c2nc3ccccc3nc21 | > 100 µM (inactive) |
| O=C1c2ccccc2-c2onc3ccc(NCc4ccco4)c1c23 | 3.91 µM (≈ 1.24 µg/mL) |
| CCN(CC)C(=O)c1sc2nc(-c3cccs3)cc(-c3cccs3)c2c1N | 12.5 µM (≈ 5.17 µg/mL) |
| COc1ccc(OC)c(Nc2nc(-c3cccs3)cs2)c1 | 56.2 µM (≈ 17.9 µg/mL) |
| N#Cc1ccc(CSc2nnc(-c3ccccn3)n2-c2ccccc2)cc1 | > 100 µM (inactive) |
| COc1cccc(-c2nnc3sc(-c4ccco4)nn23)c1 | > 100 µM (inactive) |
| CC1(C)Cc2c(C#N)c(NCc3ccco3)nc(-c3ccco3)c2CO1 | > 100 µM (inactive) |
| Cc1c(N=Cc2c(O)n(C3CCCCC3)c(=O)[nH]c2=O)c(=O)n(-c2ccccc2)n1C | > 100 µM (inactive) |
| CCOC(=O)C1CCCN(c2nc3ccccc3nc2C(C#N)C(=O)OCCOC)C1 (stereo not given) | > 100 µM (inactive) |
| COCCCN1C(=O)C(O)=C(C(C)=O)C1c1ccccn1 (stereo not given) | > 100 µM (inactive) |
| Cc1ccc2nc(C3CCN(CC(=O)N4CCCCCC4)CC3)[nH]c2c1 | > 100 µM (inactive) |
